Laboratory results taken from US20060205673A1, “2-Amino-3-hydroxy-4-tert-leucyl-amino-5-phenyl-pentanoic acid amide derivatives” (priority 2000, published 2006).

Target: T1, purified human placenta 20S proteasome (Homo sapiens, UniProt P28074)
T1 construct: 1 μl purified human placenta 20S proteasome; tissue Diabetes Forschungsinstitut, Düsseldorf, Germany; host or cells: human placenta
Test: Inhibition of the chymotrypsin-like activity of the 20S proteasome (Suc-LLVY-AMC hydrolysis)
Type: biochemical
Settings: Suc-LLVY-AMC substrate, 60 min preincubation at room temperature, Table 1
Excerpt: It is based on the hydrolysis of the fluorogenic peptide Suc-LLVY-AMC (Succinyl-leucine-leucine-valine-tyrosine-7-amino-4-methyl-coumarin), which is cleaved exclusively at the Y-AMC bond by the 20S proteasome. Hydrolysis of this peptide is accompanied by an increase in fluorescence intensity [λex (excitation wavelength): 355 nm; λem (emission wavelength): 460 nm] due to release of the internally quenched […] fluorescence that accompanies diffusion apart of the hydrolysis product Suc-LLVY.
2 μl of a 1 mM solution of a test compound in DMSO (dimethylsulfoxide, 20 μM final concentration in the well) are preincubated for 60 min at room temperature in black 96-well microtiter plates together with a mixture of 1 μl purified human placenta 20S proteasome (Diabetes Forschungsinstitut, Düsseldorf, Germany; about 100 ng proteasome, depending on the proteasome preparation) and 47 μl buffer-Ca [5 mM CaCl2, 20 mM Tris/HCl (Tris-(hydroxymethyl)-amino-methane hydrochloride) pH 8.0]. 3 μl of a 2.67 mM solution of Suc-LLVY-AMC (Bachem, Switzerland) in DMSO (80 μM final concentration in the well) and 47 μl buffer-Ca are mixed and added. The resulting mixture is incubated for 3-24 h at 37° C. If desired, proteolysis of the substrate can be stopped by addition of 50 μl stop solution (100 mM monochloroacetic acid, 130 mM NaOH, 100 mM acetic acid, pH=4.3). The fluorescence is monitored with a FLUOROSKAN ASCENT™ microtiter plate reader.
To each measure series two control experiments have to be carried out:
1.) 0% value: 2 μl DMSO are used in the above described assay instead of 2 μl of a 1 mM solution of a test compound in DMSO and 48 μl buffer-Ca instead of a mixture of 47 μl buffer-Ca and 1 μl purified proteasome.
2.) 100% value: in the above described assay 2 μl DMSO are used instead of 2 μl of a 1 mM solution of the test compound in DMSO.
The IC50 value is defined as that concentration of a compound at which the remaining activity is 50%.

- IC50: 1600 nM
Compound: COc1ccc(CNC(=O)[C@@H](NC(=O)[C@H](NCc2ccc(OC)cc2OC)[C@H](O)[C@H](Cc2ccccc2)NC(=O)[C@@H](NC(=O)OCc2ccccc2)C(C)(C)C)C(C)C)c(O)c1 [Example 5, ((S)-1-{(1S,2R,3R)-1-Benzyl-3-(2,4-dimethoxy-benzylamino)-2-hydroxy-3-[(S)-1-(2-hydroxy-4-methoxy-benzylcarbamoyl)-2-methyl-propylcarbamoyl]-propylcarbamoyl}-2,2-dimethyl-propyl)-carbamic acid benzyl ester]
